In patent publication US10358434B2, “2-(3-pyridinyl)-1H-benzimidazole derivative compound and medicament containing same” (NIHON MEDI-PHYSICS CO., LTD., priority 2014, dated 2019):
Several values for one entry are separate records, joined by “and”; a condition that tells them apart may be missing. Identical values can stand only once.

What was measured:
human CYP11B2 = target: T1, human CYP11B2 (Homo sapiens, UniProt P19099); experiment: Aldosterone production inhibition in V79-B2 cells expressing human CYP11B2 (ELISA); type: cell-based; details: for IC50: V79-B2 cells, corticosterone 100 nmol/L, 4 hours, aldosterone by ELISA, mean or mean ± SD; for Selectivity factor: mean IC50 cortisol production inhibition divided by mean IC50 aldosterone production inhibition
T1 construct: expressed in transfected cells; host or cells: V79 cells (Chinese hamster lung-derived fibroblasts, from ECACC through DS Pharma Biomedical)
T1 sequence (P19099 25-503): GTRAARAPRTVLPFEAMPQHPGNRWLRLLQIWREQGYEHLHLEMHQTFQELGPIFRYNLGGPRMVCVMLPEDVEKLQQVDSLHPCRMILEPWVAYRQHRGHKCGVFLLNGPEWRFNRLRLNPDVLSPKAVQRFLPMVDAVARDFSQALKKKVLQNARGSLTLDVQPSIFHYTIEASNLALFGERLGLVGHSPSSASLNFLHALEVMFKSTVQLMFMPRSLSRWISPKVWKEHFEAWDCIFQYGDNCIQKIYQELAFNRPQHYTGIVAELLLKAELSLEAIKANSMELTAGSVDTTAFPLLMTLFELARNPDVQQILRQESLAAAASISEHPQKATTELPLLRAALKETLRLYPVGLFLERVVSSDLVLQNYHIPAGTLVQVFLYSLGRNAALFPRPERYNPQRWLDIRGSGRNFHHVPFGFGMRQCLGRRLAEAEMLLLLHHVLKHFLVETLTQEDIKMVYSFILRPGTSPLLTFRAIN
Method: (§1) This inhibition experiment can be carried out by the following operations. Human CYP11B1 and human CYP11B2 are allowed to individually express in Chinese hamster lung-derived fibroblasts. Subsequently, 11-deoxycortisol is added to the cells expressing human CYP11B1 to a final concentration of 100 nmol/L, and corticosterone is added to the cells expressing human CYP11B2 to a final concentration of 100 nmol/L. At the same time, a target compound used as an analytical sample is added to each of the cells to a final concentration of 10^−4 to 10^4 nmol/L. Thereafter, the concentration of cortisol as a metabolite of CYP11B1 is measured in the cells expressing human CYP11B1 according to ELISA (Enzyme-Linked ImmunoSorbent Assay), and the concentration of aldosterone as a metabolite of CYP11B2 is measured in the cells expressing human CYP11B2 according to ELISA. Provided that the aldosterone concentration and the cortisol concentration without addition of any target compound as a sample are each set at 100%, an inhibition curve is produced, and then inhibitory activity (IC50) is calculated.
(§2) Chinese hamster lung-derived fibroblasts, V79 cells (acquired from ECACC (European Collection of Cell Cultures) through DS Pharma Biomedical), were allowed to express human CYP11B2, so as to produce V79-B2, and were also allowed to express human CYP11B1, so as to produce V79-B1. V79 cells were cultured in a DMEM medium (containing 4,500 mg/L D-glucose, L-glutamine, and 110 mg/L sodium pyruvate; manufactured by Life Technologies). V79-B2 or V79-B1 was inoculated on a microplate, and then cultured overnight. Thereafter, a mixed solution of corticosterone and a compound as a test target was added into a culture supernatant of V79-B2, and a mixed solution of 11-deoxycortisol and a compound as a test target was added into a culture supernatant of V79-B1. As a solvent for these mixed solutions, the aforementioned DMEM medium further containing 0.1 v/v % dimethyl sulfoxide was used. The concentration of corticosterone or 11-deoxycortisol was adjusted to be 100 nmol/L by addition of the solvent. As test target compounds, (R)-4-iodometomidate (IMTO), and Compounds 100, 200, 300, 400, 500, and 601 to 610 synthesized by methods shown in Examples 1, 3, 5, 6, 8, 10, 12, 14, 16, 18, 20, 22, 24, 26, and 28, respectively, were used. The aforementioned mixed solution was prepared such that the concentration of each compound was 10^−4 to 10^4 nmol/L in the mixed solution. One hour later, the culture supernatant of V79-B1 was recovered, and the concentration of cortisol as a metabolite of CYP11B1 was measured by ELISA (Enzyme-Linked ImmunoSorbent Assay). Moreover, four hours later, the culture supernatant of V79-B2 was recovered, and the concentration of aldosterone as a metabolite of CYP11B2 was measured by ELISA. Provided that the concentration of aldosterone or the concentration of cortisol obtained when none of IMTO and Compounds 100, 200, 300, 400 and 500 was added was defined as 100%, an inhibition curve was produced, and the inhibitory activity (IC50) of each compound was then calculated.
(§3) In Tables 5 and 6, the term “Selectivity factor” indicates a quotient of the mean value of IC50 for cortisol production inhibition divided by the mean value of IC50 for aldosterone production inhibition. In addition, the symbol “n” indicates the number of tests.

human CYP11B1 = target: T2, human CYP11B1 (Homo sapiens, UniProt P15538); experiment: Cortisol production inhibition in V79-B1 cells expressing human CYP11B1 (ELISA); type: cell-based; details: 11-deoxycortisol 100 nmol/L, 1 hour, cortisol by ELISA, mean or mean ± SD
T2 construct: expressed in transfected cells; host or cells: V79 cells (Chinese hamster lung-derived fibroblasts, from ECACC through DS Pharma Biomedical)
T2 sequence (P15538 25-503): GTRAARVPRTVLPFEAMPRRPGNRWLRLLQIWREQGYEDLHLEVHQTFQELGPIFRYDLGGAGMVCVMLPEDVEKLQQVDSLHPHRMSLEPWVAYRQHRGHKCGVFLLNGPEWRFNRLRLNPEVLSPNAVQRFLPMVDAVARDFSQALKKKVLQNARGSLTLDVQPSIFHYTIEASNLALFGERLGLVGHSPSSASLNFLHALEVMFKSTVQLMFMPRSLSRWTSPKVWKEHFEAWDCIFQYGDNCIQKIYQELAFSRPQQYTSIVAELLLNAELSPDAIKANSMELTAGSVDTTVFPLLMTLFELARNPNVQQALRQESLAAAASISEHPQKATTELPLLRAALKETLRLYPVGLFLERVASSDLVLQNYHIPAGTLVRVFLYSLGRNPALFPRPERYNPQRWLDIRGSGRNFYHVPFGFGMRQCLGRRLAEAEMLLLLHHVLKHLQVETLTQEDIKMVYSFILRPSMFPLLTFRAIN
Method: as §1, §2, §3

| Compound | IC50 (human CYP11B2) | Selectivity factor (human CYP11B2) | IC50 (human CYP11B1) |
| --- | --- | --- | --- |
| FCCn1c(-c2cncc(Cn3ccnc3)c2)nc2cc(F)c(Cl)cc21 [Compound 100, 6-Chloro-5-fluoro-1-(2-fluoroethyl)-2-[5-(imidazol-1-ylmethyl)pyridin-3-yl]benzimidazole] | 6.9 ± 2.87 nM | 15.8 | 109 ± 15.8 nM |
| FCCn1c(-c2cncc(Cn3ccnc3)c2)nc2cc(F)c(Br)cc21 [Compound 200, 6-Bromo-5-fluoro-1-(2-fluoroethyl)-2-[5-(imidazol-1-ylmethyl)pyridin-3-yl]benzimidazole] | 7.47 nM | 19.0 | 142 nM |
| COC(=O)c1cncn1Cc1cncc(-c2nc3cc(F)c(Br)cc3n2CCO)c1 [Compound 300, 2-{6-Bromo-5-fluoro-2-[5-(5-methylcarboxylateimidazol-1-ylmethyl)pyridin-3-yl]benzimidazol-1-yl}ethanol] | 10.6 nM | 1.79 | 19 nM |
| FCCn1c(-c2cncc(Cn3ccnc3)c2)nc2cc(F)c(I)cc21 [Compound 400, 5-Fluoro-1-(2-fluoroethyl)-2-[5-(imidazol-1-ylmethyl)pyridin-3-yl]-6-iodobenzimidazole] | 44.5 nM | 7.77 | 345 nM |
| FCCCn1c(-c2cncc(Cn3ccnc3)c2)nc2cc(F)c(Cl)cc21 [Compound 500, 6-Chloro-5-fluoro-1-(3-fluoropropyl)-2-[5-(imidazol-1-ylmethyl)pyridin-3-yl]benzimidazole] | 3.94 nM | 8.51 | 33.5 nM |
| Ic1ccc2nc(-c3cncc(Cn4ccnc4)c3)n(C3CC3)c2c1 [Compound 602, 1-Cyclopropyl-2-[3-(1H-imidazol-1-ylmethyl)pyridin-5-yl]-6-iodo-1H-benzimidazole] | 2.17 nM | 20.5 | 44.5 nM |
| Ic1ccc2nc(-c3cncc(Cn4ccnn4)c3)n(C3CC3)c2c1 [Compound 603, 1-Cyclopropyl-2-[3-(1H-1,2,3-triazol-1-ylmethyl)pyridin-5-yl]-6-iodo-1H-benzimidazole] | 18.1 nM | 16.4 | 296 nM |
| FCCn1c(-c2cncc(Cn3ccnc3)c2)nc2ccc(I)cc21 [Compound 604, 1-(2-Fluoroethyl)-2-[5-{(imidazol-1-yl)methyl}pyridin-3-yl]-6-iodobenzimidazole] | 4.54 nM | 11.9 | 54 nM |
| Fc1cc2nc(-c3cncc(Cn4ccnc4)c3)n(Cc3ccc(I)cc3)c2cc1Cl [Compound 605, 6-Chloro-5-fluoro-1-(4-iodobenzyl)-2-[5-(1H-imidazol-1-ylmethyl)-3-pyridinyl]-1H-benzimidazole] | 204 nM | 1.76 | 359 nM |
| CC(C)n1c(-c2cncc(Cn3ccnc3)c2)nc2ccc(I)cc21 [Compound 606, 2-[5-{(1H-imidazol-1-yl)methyl}pyridin-3-yl]-6-iodo-1-isopropyl-1H-benzo[d]imidazole] | 116 nM | 3.17 | 368 nM |
| Cn1c(-c2cncc(Cn3ccnc3)c2)nc2ccc(I)cc21 [Compound 607, 2-[5-{(1H-imidazol-1-yl)methyl}pyridin-3-yl]-6-iodo-1-methyl-1H-benzo[d]imidazole] | 0.93 nM | 7.62 | 7.07 nM |
| CCn1c(-c2cncc(Cn3ccnc3)c2)nc2ccc(I)cc21 [Compound 608, 2-[5-{(1H-imidazol-1-yl)methyl}pyridin-3-yl]-1-ethyl-6-iodo-1H-benzo[d]imidazole] | 6.58 nM | 7.93 | 52.2 nM |
| COc1cc(I)cc2c1nc(-c1cncc(Cn3ccnc3)c1)n2C1CC1 [Compound 609, 1-Cyclopropyl-2-[5-(imidazol-1-ylmethyl)pyridin-3-yl]-6-iodo-4-methoxybenzimidazole] | 1.49 nM | 10.4 | 15.5 nM |
| FCCn1c(-c2cncc(Cn3cncc3I)c2)nc2cc(F)c(Cl)cc21 [Compound 610, 6-Chloro-5-fluoro-1-(2-fluoroethyl)-2-{5-(5-iodo-1H-imidazol-1-ylmethyl)pyridin-3-yl}benzimidazole] | 9.81 nM | 9.27 | 91 nM |
| COC(=O)c1cncn1[C@H](C)c1ccc(I)cc1 [IMTO, (R)-4-iodometomidate, reference compound] | 0.21 nM and 0.24 nM | 1.01 and 1.03 | 0.22 nM and 0.25 nM |
| Methyl 1-[4-(1-cyclopropyl-6-iodo-1H-imidazobenzo-2-yl)-3-pyridinylmethyl)]-1H-imidazolecarboxylate [Compound 601] | 3.09 nM | 12.2 | 37.8 nM |
